Test results: patent US6992083B2, “Benzoxazol derivatives” (Hoffman-La Roche Inc., priority 2003, dated 2006)

How the values were obtained:
[1] = biological target: T1, human adenosine A2A receptor (Homo sapiens, UniProt P29274); test: [3H]-SCH-58261 binding assay, human adenosine A2A receptor; settings: recombinant receptor in CHO cell membranes, [3H]-SCH-58261 1 nM, Ki by Cheng-Prussoff; read-out: hA2a pKi (converted)
T1 construct: expressed in transfected cells; host or cells: CHO cells, Semliki Forest virus expression system; washed membrane preparation
T1 sequence (P29274 whole entry): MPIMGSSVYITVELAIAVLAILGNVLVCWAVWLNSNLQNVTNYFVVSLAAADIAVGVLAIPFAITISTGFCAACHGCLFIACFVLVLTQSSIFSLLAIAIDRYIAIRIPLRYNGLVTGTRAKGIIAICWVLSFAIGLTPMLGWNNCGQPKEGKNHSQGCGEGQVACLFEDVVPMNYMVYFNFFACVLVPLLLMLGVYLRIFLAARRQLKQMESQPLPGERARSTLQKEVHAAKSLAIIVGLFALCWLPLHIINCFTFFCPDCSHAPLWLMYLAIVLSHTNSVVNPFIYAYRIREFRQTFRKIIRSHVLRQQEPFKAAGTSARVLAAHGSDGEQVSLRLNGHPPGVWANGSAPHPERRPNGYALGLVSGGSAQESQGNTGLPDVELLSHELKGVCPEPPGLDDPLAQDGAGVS
Description: Human Adenosine A2A Receptor
The human adenosine A2A receptor was recombinantly expressed in Chinese hamster ovary (CHO) cells using the semliki forest virus expression system. Cells were harvested, washed twice by centrifugation, homogenised and again washed by centrifugation. The final washed membrane pellet was suspended in a Tris (50 mM) buffer containing 120 mM NaCl, 5 mM KCl, 2 mM CaCl2 and 10 mM MgCl2 (pH 7.4) (buffer A). The [^3H]-SCH-58261 (Dionisotti et al., 1997, Br J Pharmacol 121, 353; 1 nM) binding assay was carried out in 96-well plates in the presence of 2.5 μg of membrane protein, 0.5 mg of Ysi-poly-1-lysine SPA beads and 0.1 U adenosine deaminase in a final volume of 200 μl of buffer A. Non-specific binding was defined using xanthine amine congener (XAC; 2 μM). Compounds were tested at 10 concentrations from 10 μM–0.3 nM. All assays were conducted in duplicate and repeated at least two times. Assay plates were incubated for 1 hour at room temperature before centrifugation and then bound ligand determined using a Packard Topcount scintillation counter. IC50 values were calculated using a non-linear curve fitting program and Ki values calculated using the Cheng-Prussoff equation.

hA1 = biological target: T2, hA1 (Homo sapiens, UniProt P30542); test: selectivity to the A1 receptor; format: binding; settings: selectivity of A2a affinity versus hA1
T2 sequence (P30542 1-326): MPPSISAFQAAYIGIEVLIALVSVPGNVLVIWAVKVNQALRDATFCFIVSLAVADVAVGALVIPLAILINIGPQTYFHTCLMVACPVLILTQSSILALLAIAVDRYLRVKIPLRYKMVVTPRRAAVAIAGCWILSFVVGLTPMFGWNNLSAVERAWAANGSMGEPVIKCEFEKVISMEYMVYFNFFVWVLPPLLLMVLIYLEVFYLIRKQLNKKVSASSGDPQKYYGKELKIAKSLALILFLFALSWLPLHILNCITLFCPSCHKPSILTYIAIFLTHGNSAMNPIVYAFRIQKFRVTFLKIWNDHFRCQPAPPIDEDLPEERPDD

Structure (SMILES)	Ki [1] [nM]	selectivity to hA1 (hA1)
COc1ccc(-c2ccccc2)c2oc(NC(=O)c3ccc(F)cc3)nc12 [Example 1, 4-Fluoro-N-(4-methoxy-7-phenyl-benzooxazol-2-yl)-benzamide]	12	26
COCCN(C)Cc1ccc(C(=O)Nc2nc3c(OC)ccc(-c4ccccc4)c3o2)cc1 [Example 2, 4-{[(2-Methoxy-ethyl)-methyl-amino]-methyl}-N-(4-methoxy-7-phenyl-benzooxazol-2-yl)-benzamide]	22.4	137
COc1ccc(C2CCOCC2)c2oc(NC(=O)c3ccc(F)cc3)nc12 [Example 5, 4-Fluoro-N-[4-methoxy-7-(tetrahydro-pyran-4-yl)-benzooxazol-2-yl]-benzamide]	21.9	140
COc1ccc(C2CCOCC2)c2oc(NC(=O)c3ccnc(N4CCOCC4)c3)nc12 [Example 9, N-[4-Methoxy-7-(tetrahydro-pyran-4-yl)-benzooxazol-2-yl]-2-morpholin-4-yl-isonicotinamide]	21.9	351
COc1ccc(-c2ccc(F)cc2)c2oc(NC(=O)c3ccnc(CCl)c3)nc12 [Example 13, 2-Chloromethyl-N-[7-(4-fluoro-phenyl)-4-methoxy-benzooxazol-2-yl]-isonicotinamide]	22.9	227
COc1ccc(-c2ccc(F)cc2)c2oc(NC(=O)c3ccnc(C)c3)nc12 [Example 14, N-[7-(4-Fluoro-phenyl)-4-methoxy-benzooxazol-2-yl]-2-methyl-isonicotinamide]	15.8	134
COc1ccc(-c2ccc(F)cc2)c2oc(NC(=O)c3ccc(C)nc3)nc12 [Example 17, N-[7-(4-Fluoro-phenyl)-4-methoxy-benzooxazol-2-yl]-6-methyl-nicotinamide]	12.9	242
COc1ccc(-c2ccc(F)cc2)c2oc(NC(=O)c3ccc(F)cc3)nc12 [Example 18, 4-Fluoro-N-[7-(4-fluoro-phenyl)-4-methoxy-benzooxazol-2-yl]-benzamide]	6.46	120
COc1ccc(-c2ccc(F)cc2)c2oc(NC(=O)c3ccnc(N4CCOCC4)c3)nc12 [Example 20, N-[7-(4-Fluoro-phenyl)-4-methoxy-benzooxazol-2-yl]-2-morpholin-4-yl-isonicotinamide]	8.51	650
COCc1cc(C(=O)Nc2nc3c(OC)ccc(-c4ccc(F)cc4)c3o2)ccn1 [Example 21, N-[7-(4-Fluoro-phenyl)-4-methoxy-benzooxazol-2-yl]-2-methoxymethyl-isonicotinamide]	30.2	96
